According to ChEMBL document CHEMBL2380191, “Novel racemic tetrahydrocurcuminoid dihydropyrimidinone analogues as potent acetylcholinesterase inhibitors” (Bioorg Med Chem Lett, 2013):

The molecules below were run against Acetylcholinesterase (Electrophorus electricus, UniProt O42275) (assay: Inhibition of electric eel AChE using acetylthiocholine iodide as substrate after 15 mins by Ellman's method).
Sequence of Acetylcholinesterase (O42275 whole entry): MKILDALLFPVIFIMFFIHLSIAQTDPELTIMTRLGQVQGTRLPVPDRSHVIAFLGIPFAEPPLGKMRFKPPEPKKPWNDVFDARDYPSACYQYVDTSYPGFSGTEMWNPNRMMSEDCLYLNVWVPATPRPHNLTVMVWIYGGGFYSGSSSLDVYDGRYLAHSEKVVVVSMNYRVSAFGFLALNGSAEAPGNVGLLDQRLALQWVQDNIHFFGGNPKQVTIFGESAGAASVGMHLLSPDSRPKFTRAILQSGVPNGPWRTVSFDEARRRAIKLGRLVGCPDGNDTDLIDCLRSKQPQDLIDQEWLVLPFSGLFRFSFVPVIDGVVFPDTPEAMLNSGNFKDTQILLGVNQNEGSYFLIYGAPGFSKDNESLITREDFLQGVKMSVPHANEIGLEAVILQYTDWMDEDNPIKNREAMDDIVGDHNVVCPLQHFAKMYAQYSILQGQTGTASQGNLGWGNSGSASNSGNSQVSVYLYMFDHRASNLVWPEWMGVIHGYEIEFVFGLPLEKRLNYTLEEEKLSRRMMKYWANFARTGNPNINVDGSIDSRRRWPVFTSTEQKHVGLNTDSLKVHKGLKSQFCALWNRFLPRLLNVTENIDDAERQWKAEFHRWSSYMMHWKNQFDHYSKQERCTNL
Work on `COc1cc(/C=C/C(O)=C/C(=O)/C=C/c2ccc(O)cc2)ccc1O` [DEMETHOXYCURCUMIN] yielded an IC50 of 37.7 µM.
In the case of `COc1cc(CCC(=O)CC(=O)CCc2ccc(O)cc2)ccc1O` [TETRAHYDRODEMETHOXYCURCUMIN], the IC50 is reported as 20.6 µM.
`COc1cc(CCC(=O)C2=C(CCc3ccc(O)cc3)NC(=O)NC2c2ccccc2)ccc1O` (racemic) was tested, and the IC50 was 10.7 µM.
Molecule `COc1cc(CCC(=O)C2=C(CCc3ccc(O)c(OC)c3)NC(=O)NC2c2ccc(O)c(OC)c2)ccc1O` (racemic) has an IC50 of 56.4 µM.
`COc1ccc(C2NC(=O)NC(CCc3ccc(O)cc3)=C2C(=O)CCc2ccc(O)c(OC)c2)cc1` (racemic) gave an IC50 of 5.78 µM.
Work on `COc1cc(CCC2=C(C(=O)CCc3ccc(O)cc3)C(c3ccccc3)NC(=O)N2)ccc1O` (racemic) yielded an IC50 of 20.9 µM.
Work on `COc1ccc(C2NC(=O)NC(CCc3ccc(O)c(OC)c3)=C2C(=O)CCc2ccc(O)cc2)cc1` (racemic) yielded an IC50 of 9.1 µM.
`O=C(CCc1ccc(O)cc1)CC(=O)CCc1ccc(O)cc1` [LETESTUIANIN C] gave an IC50 of 7.89 µM.
With `O=C1NC(CCc2ccc(O)cc2)=C(C(=O)CCc2ccc(O)cc2)C(c2ccccc2)N1` (racemic) the IC50 was 2.04 µM.
With `O=C(/C=C/c1ccc(O)cc1)CC(=O)/C=C/c1ccc(O)cc1` [BISDEMETHOXYCURCUMIN] the IC50 was 18.3 µM.
In the case of `COc1ccc(C2NC(=O)NC(CCc3ccc(O)cc3)=C2C(=O)CCc2ccc(O)cc2)cc1` (racemic), the IC50 is reported as 1.34 µM.
`COc1cc(CCC(=O)C2=C(CCc3ccc(O)c(OC)c3)NC(=O)NC2c2ccc(O)cc2)ccc1O` (racemic) gave an IC50 of 17.3 µM.
In the case of `COc1cc(CCC(=O)C2=C(CCc3ccc(O)c(OC)c3)NC(=O)NC2c2ccccc2)ccc1O` (racemic), the IC50 is reported as 36.3 µM.
`COc1ccc(C2NC(=O)NC(CCc3ccc(O)c(OC)c3)=C2C(=O)CCc2ccc(O)c(OC)c2)cc1` (racemic) showed an IC50 of 14.3 µM.
`COc1cc(CCC(=O)CC(=O)CCc2ccc(O)c(OC)c2)ccc1O` [TETRAHYDROCURCUMIN] gave an IC50 of 41.2 µM.
